What was measured:
[1] = tested on: Puccinia recondita f. Sp. Tritici; assay: Puccinia recondita f. sp. tritici / wheat / leaf disc preventative (brown rust); assay type: in vivo; details: foliar, 200 ppm in the applied formulation, wheat leaf segments, preventative, assessed 7 to 9 days after application, read-out: disease control compared to untreated control leaf disks
Protocol: Leaf disks or leaf segments of various plant species are cut from plants grown in a greenhouse. The cut leaf disks or segments are placed in multiwell plates (24-well format) onto water agar. The leaf disks are sprayed with a test solution before (preventative) or after (curative) inoculation. Compounds to be tested are prepared as DMSO solutions (max. 10 mg/mL) which are diluted to the appropriate concentration with 0.025% Tween20 just before spraying. The inoculated leaf disks or segments are incubated under defined conditions (temperature, relative humidity, light, etc.) according to the respective test system. A single evaluation of disease level is carried out 3 to 14 days after inoculation, depending on the pathosystem. Percent disease control relative to the untreated check leaf disks or segments is then calculated.
Example 1: Fungicidal Activity Against Puccinia recondita f. Sp. Tritici/Wheat/Leaf Disc Preventative (Brown Rust)
Wheat leaf segments cv. Kanzler were placed on agar in multiwell plates (24-well format) and sprayed with the formulated test compound diluted in water. The leaf disks were inoculated with a spore suspension of the fungus 1 day after application. The inoculated leaf segments were incubated at 19° C. and 75% relative humidity (rh) under a light regime of 12 hours light/12 hours darkness in a climate cabinet and the activity of a compound was assessed as percent disease control compared to untreated when an appropriate level of disease damage appears in untreated check leaf segments (7 to 9 days after application).
The following compounds at 200 ppm in the applied formulation give at least 80% disease control in this test when compared to untreated control leaf disks under the same conditions, which show extensive disease development.

[2] = tested on: Glomerella lacenarium (Colletotrichum lacenarium); assay: Glomerella lacenarium (Colletotrichum lacenarium) liquid culture / cucumber / preventative (anthracnose); assay type: cell-based; details: 20 ppm in the applied formulation, liquid culture in PDB, 24° C., 3 to 4 days after application, read-out: disease control (inhibition of growth, photometric) compared to untreated control
Protocol: Mycelia fragments or conidia suspensions of a fungus prepared either freshly from liquid cultures of the fungus or from cryogenic storage, are directly mixed into nutrient broth. DMSO solutions of the test compound (max. 10 mg/ml) are diluted with 0.025% Tween20 by a factor of 50 and 10 μL of this solution is pipetted into a microtiter plate (96-well format). The nutrient broth containing the fungal spores/mycelia fragments is then added to give an end concentration of the tested compound. The test plates are incubated in the dark at 24° C. and 96% relative humidity. The inhibition of fungal growth is determined photometrically after 2 to 7 days, depending on the pathosystem, and percent antifungal activity relative to the untreated check is calculated.
Example 4: Fungicidal Activity Against Glomerella lacenarium (Colletotrichum lacenarium) Liquid Culture/Cucumber/Preventative (Anthracnose)
Conidia of the fungus from cryogenic storage are directly mixed into nutrient broth (PDB—potato dextrose broth). After placing a (DMSO) solution of test compound into a microtiter plate (96-well format), the nutrient broth containing the fungal spores is added. The test plates are incubated at 24° C. and the inhibition of growth is measured photometrically 3 to 4 days after application.
The following compounds at 20 ppm in the applied formulation give at least 80% disease control in this test when compared to untreated control under the same conditions, which show extensive disease development.

| SMILES | pest or weed control at 200 ppm [1] [%] | inhibition at 20 ppm [2] [%] |
| --- | --- | --- |
| CCNC(=O)C(=O)NCc1ccc(-c2noc(C(F)(F)F)n2)cc1 [Compound 4.49, N-ethyl-N′-[[4-[5-(trifluoromethyl)-1,2,4-oxadiazol-3-yl]phenyl]methyl] oxamide] | ≥ 80 | ≥ 80 |
| CCCON(Cc1ccc(-c2noc(C(F)(F)F)n2)cc1)C(=O)C(C)=O [Compound 1.8, 2-oxo-N-propoxy-N-[[4-[5-(trifluoromethyl)-1,2,4-oxadiazol-3-yl]phenyl]methyl]propanamide] | ≥ 80 | ≥ 80 |
| CC(=O)C(=O)N(Cc1ccc(-c2noc(C(F)(F)F)n2)cc1)OCC=C(Cl)Cl [Compound 1.22, N-(3,3-dichloro-allyloxy)-2-oxo-N-[[4-[5-(trifluoromethyl)-1,2,4-oxadiazol-3-yl]phenyl]methyl]propanamide] | ≥ 80 | ≥ 80 |
| CON=C(C(=O)N(Cc1ccc(-c2noc(C(F)(F)F)n2)cc1)OC)c1ccccc1 [Compound 2.4, N-methoxy-2-methoxyimino-2-phenyl-N-[[4-[5-(trifluoromethyl)-1,2,4-oxadiazol-3-yl]phenyl]methyl]acetamide] | ≥ 80 | ≥ 80 |
| NC(=O)C(=O)N(Cc1ccc(-c2noc(C(F)(F)F)n2)cc1)OCc1ccc(Cl)cc1 [Compound 4.34, N′-[(4-chlorophenyl)methoxy]-N′-[[4-[5-(trifluoromethyl)-1,2,4-oxadiazol-3-yl]phenyl]methyl] oxamide] | ≥ 80 | ≥ 80 |
| CON(Cc1ccc(-c2noc(C(F)(F)F)n2)cc1)C(=O)C(=O)NCc1ccccc1 [Compound 4.71, N-benzyl-N′-methoxy-N'-[[4-[5-(trifluoromethyl)-1,2,4-oxadiazol-3-yl]phenyl]methyl] oxamide] | ≥ 80 | ≥ 80 |
| CON(Cc1ccc(-c2noc(C(F)(F)F)n2)cc1)C(=O)C(=O)Nc1ccccc1 [Compound 4.70, N′-methoxy-N-phenyl-N′-[[4-[5-(trifluoromethyl)-1,2,4-oxadiazol-3-yl]phenyl]methyl] oxamide] | ≥ 80 | ≥ 80 |
| CN(C)C(=O)C(=O)N(Cc1ccc(-c2noc(C(F)(F)F)n2)cc1)OCC=C(Cl)Cl [Compound 4.31, N′-(3,3-dichloroallyloxy)-N,N-dimethyl-N′-[[4-[5-(trifluoromethyl)-1,2,4-oxadiazol-3-yl]phenyl]methyl] oxamide] | ≥ 80 | ≥ 80 |
| CN(C(=O)C(=O)Nc1ccc(-c2noc(C(F)(F)F)n2)cc1)C1CCN(C(=O)OC(C)(C)C)C1 (centres unmarked) [Compound 4.22, tert-butyl 3-[methyl-[2-oxo-2-[4-[5-(trifluoromethyl)-1,2,4-oxadiazol-3-yl]anilino]acetyl]amino] pyrrolidine-1-carboxylate] | ≥ 80 |  |
| CON(Cc1ccc(-c2noc(C(F)(F)F)n2)cc1)C(=O)C(=O)NCc1ccco1 [Compound 4.81, N-(2-furylmethyl)-N′-methoxy-N′-[[4-[5-(trifluoromethyl)-1,2,4-oxadiazol-3-yl]phenyl]methyl] oxamide] | ≥ 80 | ≥ 80 |
| N#CCCN(CCC#N)C(=O)C(=O)Nc1ccc(-c2noc(C(F)(F)F)n2)cc1 [Compound 4.18, N′,N′-bis(2-cyanoethyl)-N-[4-[5-(trifluoromethyl)-1,2,4-oxadiazol-3-yl]phenyl]oxamide] | ≥ 80 |  |
| CON(Cc1ccc(-c2noc(C(F)(F)F)n2)cc1)C(=O)C(=O)NC1CCCC1 [Compound 4.79, N-cyclopentyl-N′-methoxy-N′-[[4-[5-(trifluoromethyl)-1,2,4-oxadiazol-3-yl]phenyl]methyl] oxamide] | ≥ 80 | ≥ 80 |
| O=C(Nc1ccc(-c2noc(C(F)(F)F)n2)cc1)C(=O)N(Cc1ccc2c(c1)OCO2)CC1OCCO1 [Compound 4.16, N′-(1,3-benzodioxol-5-ylmethyl)-N′-(1,3-dioxolan-2-ylmethyl)-N-[4-[5-(trifluoromethyl)-1,2,4-oxadiazol-3-yl]phenyl]oxamide] |  | ≥ 80 |
| CCCC(=O)C(=O)N(Cc1ccc(-c2noc(C(F)(F)F)n2)cc1)OCC=C(Cl)Cl [Compound 1.23, N-(3,3-dichloro-allyloxy)-2-oxo-N-[[4-[5-(trifluoromethyl)-1,2,4-oxadiazol-3-yl]phenyl]methyl]pentanamide] |  | ≥ 80 |
| O=C(NCc1ccccc1)C(=O)NCc1ccc(-c2noc(C(F)(F)F)n2)cc1 [Compound 4.53, N-benzyl-N′-[[4-[5-(trifluoromethyl)-1,2,4-oxadiazol-3-yl]phenyl]methyl] oxamide] | ≥ 80 |  |
| NC(=O)C(=O)NCc1ccc(-c2noc(C(F)(F)F)n2)c(F)c1 [Compound 4.83, N′-[[3-fluoro-4-[5-(trifluoromethyl)-1,2,4-oxadiazol-3-yl]phenyl]methyl] oxamide] |  | ≥ 80 |
| CN(C)C(=O)C(=O)N(Cc1ccc(-c2noc(C(F)(F)F)n2)cc1)OCc1ccc(Cl)cc1 [Compound 4.33, N′-[(4-chlorophenyl)methoxy]-N,N-dimethyl-N′-[[4-[5-(trifluoromethyl)-1,2,4-oxadiazol-3-yl]phenyl]methyl] oxamide] |  | ≥ 80 |
| CC(=O)C(=O)NCc1ccc(-c2noc(C(F)(F)F)n2)cn1 [Compound 1.28, 2-oxo-N-[[5-[5-(trifluoromethyl)-1,2,4-oxadiazol-3-yl]-2-pyridyl]methyl]propanamide] |  | ≥ 80 |
| CCCC(=O)C(=O)N(Cc1ccc(-c2noc(C(F)(F)F)n2)cc1)C(C)CC (centres unmarked) [Compound 1.11, 2-oxo-N-sec-butyl-N-[[4-[5-(trifluoromethyl)-1,2,4-oxadiazol-3-yl]phenyl]methyl]pentanamide] |  | ≥ 80 |
| CCCON(Cc1ccc(-c2noc(C(F)(F)F)n2)cc1)C(=O)C(=O)CCC [Compound 1.7, 2-oxo-N-propoxy-N-[[4-[5-(trifluoromethyl)-1,2,4-oxadiazol-3-yl]phenyl]methyl]pentanamide] |  | ≥ 80 |
| CC(=O)C(=O)NCc1ccc(-c2noc(C(F)(F)F)n2)cc1Cl [Compound 1.60, N-[[2-chloro-4-[5-(trifluoromethyl)-1,2,4-oxadiazol-3-yl]phenyl]methyl]-2-oxo-propanamide] |  | ≥ 80 |
| NC(=O)C(=O)NCc1ccc(-c2noc(C(F)(F)F)n2)cc1F [Compound 4.82, N′-[[2-fluoro-4-[5-(trifluoromethyl)-1,2,4-oxadiazol-3-yl]phenyl]methyl] oxarnide] |  | ≥ 80 |
| CC(C)CNC(=O)C(=O)NCc1ccc(-c2noc(C(F)(F)F)n2)cc1 [Compound 4.50, N′-isobutyl-N-[[4-[5-(trifluoromethyl)-1,2,4-oxadiazol-3-yl]phenyl]methyl] oxamide] | ≥ 80 |  |
| CC(C)(C)CNC(=O)C(=O)NCc1ccc(-c2noc(C(F)(F)F)n2)cc1 [Compound 4.45, N′-(2,2-dimethylpropyl)-N-[[4-[5-(trifluoromethyl)-1,2,4-oxadiazol-3-yl]phenyl]methyl] oxamide] |  | ≥ 80 |
| CCCC(=O)C(=O)N(Cc1ccc(-c2noc(C(F)(F)F)n2)cc1)OCc1ccc(Cl)cc1 [Compound 1.24, N-[(4-chlorophenyl)methoxy]-2-oxo-N-[[4-[5-(trifluoromethyl)-1,2,4-oxadiazol-3-yl]phenyl]methyl]pentanamide] |  | ≥ 80 |

Reference: patent US20180370927A1, “MICROBIOCIDAL OXADIAZOLE DERIVATIVES” (SYNGENTA PARTICIPATIONS AG, priority 2015, published 2018)
